Laboratory results reported in patent publication US20240317735A1, “HYDROISOQUINOLINE OR HYDRONAPHTHYRIDINE COMPOUNDS FOR THE TREATMENT OF AUTOIMMUNE DISEASE” (Hoffmann-La Roche Inc., priority 2020, published 2024).

Columns and labels:
[1] = biological target: T1, human TLR8 (Homo sapiens, UniProt Q9NR97); test: HEK293-Blue-hTLR-8 cells assay (SEAP reporter, R848 stimulation); assay type: cell-based; conditions: HEK293-Blue-hTLR8 cells, R848, 20 hrs; read-out: HEK/hTLR8 IC50
T1 construct: host or cells: HEK293 (HEK-Blue hTLR8)
T1 sequence (Q9NR97 27-1041): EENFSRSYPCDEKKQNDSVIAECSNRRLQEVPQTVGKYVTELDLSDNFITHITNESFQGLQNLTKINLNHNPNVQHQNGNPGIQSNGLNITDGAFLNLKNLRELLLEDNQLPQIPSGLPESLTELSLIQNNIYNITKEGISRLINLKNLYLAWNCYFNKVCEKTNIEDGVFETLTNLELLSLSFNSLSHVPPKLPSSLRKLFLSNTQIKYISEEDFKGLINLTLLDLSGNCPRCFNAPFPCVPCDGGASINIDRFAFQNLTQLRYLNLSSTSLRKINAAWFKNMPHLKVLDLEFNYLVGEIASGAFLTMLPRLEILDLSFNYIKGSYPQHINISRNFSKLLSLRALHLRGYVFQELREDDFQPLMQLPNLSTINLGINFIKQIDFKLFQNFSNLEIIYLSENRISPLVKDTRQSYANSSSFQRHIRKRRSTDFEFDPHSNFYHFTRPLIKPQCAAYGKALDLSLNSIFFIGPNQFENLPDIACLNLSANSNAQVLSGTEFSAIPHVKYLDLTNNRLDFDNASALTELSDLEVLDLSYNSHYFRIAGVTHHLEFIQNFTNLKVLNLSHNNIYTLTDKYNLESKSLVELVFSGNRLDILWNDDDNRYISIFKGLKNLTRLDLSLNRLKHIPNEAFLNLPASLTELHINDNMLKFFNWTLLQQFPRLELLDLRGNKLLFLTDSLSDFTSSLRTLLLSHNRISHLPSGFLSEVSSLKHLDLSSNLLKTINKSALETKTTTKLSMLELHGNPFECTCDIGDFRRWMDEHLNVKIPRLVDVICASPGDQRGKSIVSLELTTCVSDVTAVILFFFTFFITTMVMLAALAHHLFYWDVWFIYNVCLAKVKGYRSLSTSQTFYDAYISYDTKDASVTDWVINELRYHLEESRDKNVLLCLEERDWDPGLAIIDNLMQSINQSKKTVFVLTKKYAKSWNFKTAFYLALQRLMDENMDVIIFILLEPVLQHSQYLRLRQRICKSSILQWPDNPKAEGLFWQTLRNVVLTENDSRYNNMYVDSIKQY
Outline: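 HEK293-Blue hTLR8 cells with NF-κB/AP-1-driven SEAP reporter incubated 20 h at 37 °C with serially diluted compound (1% DMSO) and R848 stimulus (60 μM stock). Supernatant SEAP measured with QUANTI-Blue (2 h, 37 °C) by absorbance at 620–655 nm; antagonism read as reduced reporter signal.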

[2] = Human microsome stability assay; assay type: in vitro ADME; conditions: 1 μM test compound, 0.5 mg/mL liver microsomal protein, 37° C., pH 7.4
Outline: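 1 μM compound with 0.5 mg/mL human liver microsomes in 100 mM potassium phosphate pH 7.4, 37° C, started with NADPH-regenerating system after 10 min preincubation. Sampled at 0, 3, 6, 9, 15, 30 min, quenched in acetonitrile; parent remaining by LC-MS/MS, with no-NADPH controls.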

SMILES | IC50 [1] [nM] | Clearance of Human microsome [2] [mL/min/kg]
C[C@H]1CN(c2ccnc3c2cnn3C)Cc2ccc(OCCN3CCNCC3)cc21 [Example 40, (4R)-4-methyl-2-(1-methylpyrazolo[3,4-b]pyridin-4-yl)-6-(2-piperazin-1-ylethoxy)-3,4-dihydro-1H-isoquinoline] | 7 | 6.2
C[C@H]1CN(c2ccnc3c2cnn3C)Cc2ccc(N3CC4(CCNCC4)OC3=O)cc21 [Example 26, 3-[(4R)-4-methyl-2-(1-methylpyrazolo[3,4-b]pyridin-4-yl)-3,4-dihydro-1H-isoquinolin-6-yl]-1-oxa-3,8-diazaspiro[4.5]decan-2-one] | 10 | 6.2
C[C@H]1CN(c2ccnc3c2cnn3C)Cc2ccc(N3CC4(CNCCO4)C3)cc21 [Example 21, 2-[(4R)-4-methyl-2-(1-methylpyrazolo[3,4-b]pyridin-4-yl)-3,4-dihydro-1H-isoquinolin-6-yl]-5-oxa-2,8-diazaspiro[3.5]nonane] | 14 | 10.1
C[C@H]1CN(c2ccnc3c2cnn3C)Cc2ccc(OC[C@H]3CNCCN3)cc21 [Example 18, (4R)-4-methyl-2-(1-methylpyrazolo[3,4-b]pyridin-4-yl)-6-[[(2R)-piperazin-2-yl]methoxy]-3,4-dihydro-1H-isoquinoline] | 4 | 10.5
CO[C@@H]1CN(c2cc3c(cn2)CN(c2cc(C)nc4c2cnn4C)C[C@@H]3C)C[C@H]1N [Example 78, (3R,4R)-4-methoxy-1-[(5R)-7-(1,6-dimethylpyrazolo[3,4-b]pyridin-4-yl)-5-methyl-6,8-dihydro-5H-2,7-naphthyridin-3-yl]pyrrolidin-3-amine] | 52 | 6.9
CO[C@@H]1CN(c2ccc3c(c2)[C@@H](C)CN(c2ccnc4c2cnn4C)C3)C[C@H]1N [Example 20, (3R,4R)-4-methoxy-1-[(4R)-4-methyl-2-(1-methylpyrazolo[3,4-b]pyridin-4-yl)-3,4-dihydro-1H-isoquinolin-6-yl]pyrrolidin-3-amine] | 17 | 10.2
C[C@H]1CN(c2ccnc3c2cnn3C)Cc2ccc(N3CCNCC3)cc21 [Example 1, (4R)-4-methyl-2-(1-methylpyrazolo[3,4-b]pyridin-4-yl)-6-piperazin-1-yl-3,4-dihydro-1H-isoquinoline] | 2 | 6.2
C[C@H]1CN(c2ccnc3c2cnn3C)Cc2ccc(N3C[C@@H](N)[C@H](O)C3)cc21 [Example 46, trans-4-amino-1-[(4R)-4-methyl-2-(1-methylpyrazolo[3,4-b]pyridin-4-yl)-3,4-dihydro-1H-isoquinolin-6-yl]pyrrolidin-3-ol] | 7 | 6.2
C[C@H]1CN(c2ccnc3c2cnn3C)Cc2ccc(N3CCN(C(=O)C4CCNCC4)CC3)cc21 [Example 7, 4-piperidyl-[4-[(4R)-4-methyl-2-(1-methylpyrazolo[3,4-b]pyridin-4-yl)-3,4-dihydro-1H-isoquinolin-6-yl]piperazin-1-yl]methanone] | 17 | 10.3
Cc1cc(N2Cc3ccc(N4CC5(CNCCO5)C4)cc3[C@@H](C)C2)c2cnn(C)c2n1 [Example 48, 2-[(4R)-2-(1,6-dimethylpyrazolo[3,4-b]pyridin-4-yl)-4-methyl-3,4-dihydro-1H-isoquinolin-6-yl]-5-oxa-2,8-diazaspiro[3.5]nonane] | 6 | 7.2

Continued by falling IC50 [1], values first:

IC50 [1] [nM] | Clearance of Human microsome [2] [mL/min/kg] | SMILES
6 | 7.0 | C[C@H]1CN(c2ccnc3c2cnn3C)Cc2ccc(N3CCN(C(=O)C4CCCN4)CC3)cc21 (stereo partly drawn) [Example 8, pyrrolidin-2-yl-[4-[(4R)-4-methyl-2-(1-methylpyrazolo[3,4-b]pyridin-4-yl)-3,4-dihydro-1H-isoquinolin-6-yl]piperazin-1-yl]methanone]
5 | 8.2 | C[C@H]1CN(c2ccnc3c2cnn3C)Cc2ccc(N3CCN(Cc4cn(C)cn4)CC3)cc21 [Example 37, (4R)-4-methyl-6-[4-[(1-methylimidazol-4-yl)methyl]piperazin-1-yl]-2-(1-methylpyrazolo[3,4-b]pyridin-4-yl)-3,4-dihydro-1H-isoquinoline]
4 | 7.0 | Cc1cc(N2Cc3ccc(OC4CCNCC4)nc3[C@@H](C)C2)c2cnn(C)c2n1 [Example 64, (8S)-6-(1,6-dimethylpyrazolo[3,4-b]pyridin-4-yl)-8-methyl-2-(4-piperidyloxy)-7,8-dihydro-5H-1,6-naphthyridine]
3 | 6.2 | Cc1cc(N2Cc3ccc(N4C[C@@H](N)[C@H](O)C4)cc3[C@@H](C)C2)c2cnn(C)c2n1 [Example 47, trans-4-amino-1-[(4R)-2-(1,6-dimethylpyrazolo[3,4-b]pyridin-4-yl)-4-methyl-3,4-dihydro-1H-isoquinolin-6-yl]pyrrolidin-3-ol]
2 | 9.7 | C[C@H]1CN(c2ccnc3c2cnn3C)Cc2ccc(N3CCC(N4CC[C@@H](N)[C@H](O)C4)CC3)cc21 [Example 29, trans-4-amino-1-[1-[(4R)-4-methyl-2-(1-methylpyrazolo[3,4-b]pyridin-4-yl)-3,4-dihydro-1H-isoquinolin-6-yl]-4-piperidyl]piperidin-3-ol]
2 | 6.3 | CO[C@H]1CN(c2cc3c(cn2)CN(c2cc(C)nc4c2cnn4C)C[C@@H]3C)CC[C@@H]1N [Example 73, (3S,4S)-3-methoxy-1-[(5R)-7-(1,6-dimethylpyrazolo[3,4-b]pyridin-4-yl)-5-methyl-6,8-dihydro-5H-2,7-naphthyridin-3-yl]piperidin-4-amine]
2 | 6.2 | C[C@H]1CN(c2ccnc3c2cnn3C)Cc2ccc(N3CCC(O)(CN(C)C)CC3)cc21 [Example 13, 4-[(dimethylamino)methyl]-1-[(4R)-4-methyl-2-(1-methylpyrazolo[3,4-b]pyridin-4-yl)-3,4-dihydro-1H-isoquinolin-6-yl]piperidin-4-ol]
2 | 6.2 | C[C@H]1CN(c2ccnc3c2cnn3C)Cc2ccc(OC[C@H]3CNCCN3C)cc21 [Example 43, (4R)-4-methyl-2-(1-methylpyrazolo[3,4-b]pyridin-4-yl)-6-[[(2R)-1-methylpiperazin-2-yl]methoxy]-3,4-dihydro-1H-isoquinoline]
2 | 7.3 | Cc1cc(N2Cc3ccc(N4CCNCC4)nc3[C@H](C)C2)c2cnn(C)c2n1 [Example 72, (8R)-6-(1,6-dimethylpyrazolo[3,4-b]pyridin-4-yl)-8-methyl-2-piperazin-1-yl-7,8-dihydro-5H-1,6-naphthyridine]
1 | 9.0 | Cc1cc(N2Cc3ccc(N4CCNCC4)cc3[C@@H](C)C2)c2cnn(C)c2n1 [Example 2, (4R)-2-(1,6-dimethylpyrazolo[3,4-b]pyridin-4-yl)-4-methyl-6-piperazin-1-yl-3,4-dihydro-1H-isoquinoline]
0.4 | 9.0 | Cc1cc(N2Cc3ccc(N4CCC(N)CC4)nc3[C@@H](C)C2)c2cnn(C)c2n1 [Example 58, 1-[(8S)-6-(1,6-dimethylpyrazolo[3,4-b]pyridin-4-yl)-8-methyl-7,8-dihydro-5H-1,6-naphthyridin-2-yl]piperidin-4-amine]
